Experimental data taken from paper PMC3125419 (Journal of acquired immune deficiency syndromes (1999), 2011).
Read-outs that look alike come from different tables or passages of the source. Marks after values point to notes of the source that are not given here. Blank lines part the entries; values can stand above or below the compound they belong to.

Assays:
clinical [1] = conditions: female, human, in vivo
clinical [2] = conditions: female, human, in vivo; remark: listed apart in the source
[3] = One-compartment model with first-order absorption and elimination; assay type: in vivo, human; conditions: median
[4] = cited from earlier work
[5] = female, human, in vivo
[6] = human, in vivo
HIV-1 RNA = experiment: Plasma viral load and infant HIV infection status; assay type: in vivo, human; conditions: for Undetectable (<20, 50, 75 or 400) plasma HIV-1 RNA, N (%): atazanavir/ritonavir-based regimen
[7] = with tenofovir, median (range), N=19

Structure (SMILES): COC(=O)N[C@H](C(=O)N[C@@H](Cc1ccccc1)[C@@H](O)CN(Cc1ccc(-c2ccccn2)cc1)NC(=O)[C@@H](NC(=O)OC)C(C)(C)C)C(C)(C)C [Atazanavir]
- Tmax (clinical [1]): 4 h
- Kp (clinical [2]): 0.18
- concentration in cord blood (clinical [2]): 0.16 (<0.047 – 0.42) mcg/mL
- concentration in maternal delivery plasma (clinical [2]): 0.83 (0.11 - 2.36) mcg/mL
- ratio of concentration in cord blood to that in maternal delivery plasma (clinical [2]): 0.18 (0.04 – 0.45)
- CL/F, one-compartment ([3]; with tenofovir, postpartum): 7.2 L/h
- CL/F, one-compartment ([3]; with tenofovir, second trimester): 14.5 L/h
- CL/F, one-compartment ([3]; with tenofovir, third trimester): 9.9 L/h
- CL/F, one-compartment ([3]; without tenofovir, postpartum): 4.9 L/h
- CL/F, one-compartment ([3]; without tenofovir, second trimester): 3.1 L/h
- CL/F, one-compartment ([3]; without tenofovir, third trimester): 6.7 L/h
- estimated 10th percentile AUC0-24 ([4]; non-pregnant adult populations, standard dose): 29400 ng·h/mL
- mean AUC ([4]; non-pregnant historical controls taking the standard dose): 57000 ng·h/mL
- geometric mean AUC ([4]; nonpregnant HIV infected adults): 46100 ng·h/mL
- AUC ([4]; postpartum, ref Eley, 10): 57200 ng·h/mL
- mean AUC ([4]; postpartum, ref Ripamonti, 9): 30500 ng·h/mL
- geometric mean AUC ([4]; third trimester, 12 women, ref Eley et al, 10): 26600 ng·h/mL
- Grade 3 or 4 hyperbilirubinemia [5]: 14 subjects
- Grade 3 or 4 toxicities [5]: 16 subjects
- additional reduction of AUC0-24 and Cmin when coadministered with tenofovir ([6]; female): 25%
- infants HIV-uninfected (HIV-1 RNA; 38 infants, status indeterminate for one): Thirty-seven
- Undetectable (<20, 50, 75 or 400) plasma HIV-1 RNA, N (%) (HIV-1 RNA; delivery, with tenofovir): 17 (89%) ^‡
- Undetectable (<20, 50, 75 or 400) plasma HIV-1 RNA, N (%) (HIV-1 RNA; delivery, with tenofovir, listed as atazanavir): 17 of 19
- Undetectable (<20, 50, 75 or 400) plasma HIV-1 RNA, N (%) (HIV-1 RNA; delivery, without tenofovir): 11 (69%) ^†
- Undetectable (<20, 50, 75 or 400) plasma HIV-1 RNA, N (%) (HIV-1 RNA; delivery, without tenofovir, listed as atazanavir): 11 of 16
- Undetectable (<20, 50, 75 or 400) plasma HIV-1 RNA, N (%) (HIV-1 RNA; postpartum, with tenofovir): 14 (100%) ^++
- Undetectable (<20, 50, 75 or 400) plasma HIV-1 RNA, N (%) (HIV-1 RNA; postpartum, without tenofovir): 8 (73%) ^+
- Undetectable (<20, 50, 75 or 400) plasma HIV-1 RNA, N (%) (HIV-1 RNA; third trimester, with tenofovir): 15 (79%) ^§
- Undetectable (<20, 50, 75 or 400) plasma HIV-1 RNA, N (%) (HIV-1 RNA; third trimester, without tenofovir): 13 (72%) ^**
- Postpartum plasma HIV-1 RNA (HIV-1 RNA; with tenofovir, median (range), N=14): <75 (<20 - <400) copies/mL
- Delivery plasma HIV-1 RNA (HIV-1 RNA; [7]): <75 (<20 – 116) copies/mL
- third trimester plasma HIV-1 RNA (HIV-1 RNA; [7]): <50 (<20 – 1630) copies/mL
- Delivery plasma HIV-1 RNA (HIV-1 RNA; without tenofovir, median (range), N=16): <62.5 (<50 - 29933) copies/mL
- third trimester plasma HIV-1 RNA (HIV-1 RNA; without tenofovir, median (range), N=18): <62.5 (<50 - 19314) copies/mL

- Tmax (clinical [1]): 6 h
- Tmax ([6]; female): 4 (2 – 4) hr
- Vd/F ([6]; female): 34.2 L
- AUC0-24, C0, Cmax and C24 during the 3rd trimester compared to postpartum [6]: decreased
- CL/F [6]: 6.8 L/h
- Cl/F during the 3rd trimester compared to postpartum [6]: increased
Structure (SMILES): CC(C)c1nc(CN(C)C(=O)N[C@H](C(=O)N[C@@H](Cc2ccccc2)C[C@H](O)[C@H](Cc2ccccc2)NC(=O)OCc2cncs2)C(C)C)cs1 [Ritonavir]

Structure (SMILES): CC(C)(C)NC(=O)[C@@H]1CN(Cc2cccnc2)CCN1C[C@@H](O)C[C@@H](Cc1ccccc1)C(=O)N[C@H]1c2ccccc2C[C@H]1O [indinavir]
- AUC lower during pregnancy compared to postpartum ([4]; unboosted): 68%

Structure (SMILES): Cc1cccc(C)c1OCC(=O)N[C@@H](Cc1ccccc1)[C@@H](O)C[C@H](Cc1ccccc1)NC(=O)[C@H](C(C)C)N1CCCNC1=O [lopinavir]
- AUC reduction during the third trimester ([4]; capsules at standard dosing (lopinavir 400 mg/ritonavir 100 mg twice daily)): 50%

Structure (SMILES): CC(C)(C)NC(=O)[C@@H]1C[C@@H]2CCCC[C@@H]2CN1C[C@@H](O)[C@H](Cc1ccccc1)NC(=O)[C@H](CC(N)=O)NC(=O)c1ccc2ccccc2n1 [saquinavir]
- pregnant subjects achieving adequate trough concentrations ([4]; saquinavir 1200 mg/ritonavir 100 mg once daily): 93%
